These results are taken from patent US11555012B2 (Nimbus Artemis, Inc., priority 2018, dated 2023).

The structures appear in SMILES notation. Bounds are passed on as bounds.

For experiment [1], the target named is T1, ACL (Homo sapiens (Human), UniProt P53396). Put plainly: ADP-Glo Assay.
Target sequence in this assay (P53396 other isoform, or with tags, fused parts or gaps isoform P53396-2): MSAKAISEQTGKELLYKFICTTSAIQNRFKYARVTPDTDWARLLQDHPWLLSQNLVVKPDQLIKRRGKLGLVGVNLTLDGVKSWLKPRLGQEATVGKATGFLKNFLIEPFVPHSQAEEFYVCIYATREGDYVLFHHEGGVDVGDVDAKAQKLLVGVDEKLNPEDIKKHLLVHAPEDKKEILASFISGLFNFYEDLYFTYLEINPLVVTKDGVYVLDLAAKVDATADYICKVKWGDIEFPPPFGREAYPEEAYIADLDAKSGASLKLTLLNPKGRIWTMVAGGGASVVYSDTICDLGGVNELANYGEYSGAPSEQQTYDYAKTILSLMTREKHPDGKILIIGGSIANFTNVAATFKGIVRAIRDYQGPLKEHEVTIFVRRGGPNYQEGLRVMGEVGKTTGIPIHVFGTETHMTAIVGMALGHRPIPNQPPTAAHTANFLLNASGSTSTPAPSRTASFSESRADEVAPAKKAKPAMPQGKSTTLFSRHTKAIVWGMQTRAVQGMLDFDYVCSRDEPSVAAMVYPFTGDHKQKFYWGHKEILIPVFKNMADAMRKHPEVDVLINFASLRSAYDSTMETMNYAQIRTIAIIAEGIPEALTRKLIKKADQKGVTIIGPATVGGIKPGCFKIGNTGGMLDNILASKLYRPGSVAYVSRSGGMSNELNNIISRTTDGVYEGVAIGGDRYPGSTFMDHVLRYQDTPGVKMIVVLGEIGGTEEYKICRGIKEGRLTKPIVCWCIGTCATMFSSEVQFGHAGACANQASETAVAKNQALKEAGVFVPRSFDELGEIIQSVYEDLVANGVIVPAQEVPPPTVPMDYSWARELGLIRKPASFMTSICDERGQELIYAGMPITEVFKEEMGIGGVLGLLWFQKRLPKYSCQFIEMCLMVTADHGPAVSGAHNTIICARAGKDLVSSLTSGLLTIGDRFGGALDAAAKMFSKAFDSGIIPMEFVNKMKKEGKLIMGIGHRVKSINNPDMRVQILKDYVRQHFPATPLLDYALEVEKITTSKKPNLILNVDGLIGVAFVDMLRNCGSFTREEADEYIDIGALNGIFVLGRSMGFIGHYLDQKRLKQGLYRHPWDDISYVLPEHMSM
Method: Compounds of the present invention were evaluated in an ADP-GLO assay as follows:
b) Add 0.1 μL diluted cpd solution to assay plate, each dose with 2 replicates c) Centrifuge 1000 RPM for 1 min d) Add 5 μL ACL working solution to 384-well assay plate, centrifuge 1000 RPM for 1 min e) Incubate at 25° C. for 15 min f) Add 5 μL substrate working solution to initiate reaction
h) Reference final conc: 30 uM starting Conc, 3× dilution, 11+0 points. Test cpd conc: 30/100 uM starting Conc, 3× dilution, 11+0 points. i) Incubate at 25° C. for 60 min j) Add 10 μL ADP Glo reagent, centrifuge 1000 RPM for 1 min k) Incubate at 25° C. for 40 min l) Add 20 μL kinase detection reagent, centrifuge 1000 RPM for 1 min m) Incubate at 25° C. for 40 min n) Read on Envision for US LUM as RLU
Experiment [2] has as its target T1, ACL. In words: ACLY-MDH Coupled Assay.
Target sequence in this assay (P53396 whole entry, species assumed): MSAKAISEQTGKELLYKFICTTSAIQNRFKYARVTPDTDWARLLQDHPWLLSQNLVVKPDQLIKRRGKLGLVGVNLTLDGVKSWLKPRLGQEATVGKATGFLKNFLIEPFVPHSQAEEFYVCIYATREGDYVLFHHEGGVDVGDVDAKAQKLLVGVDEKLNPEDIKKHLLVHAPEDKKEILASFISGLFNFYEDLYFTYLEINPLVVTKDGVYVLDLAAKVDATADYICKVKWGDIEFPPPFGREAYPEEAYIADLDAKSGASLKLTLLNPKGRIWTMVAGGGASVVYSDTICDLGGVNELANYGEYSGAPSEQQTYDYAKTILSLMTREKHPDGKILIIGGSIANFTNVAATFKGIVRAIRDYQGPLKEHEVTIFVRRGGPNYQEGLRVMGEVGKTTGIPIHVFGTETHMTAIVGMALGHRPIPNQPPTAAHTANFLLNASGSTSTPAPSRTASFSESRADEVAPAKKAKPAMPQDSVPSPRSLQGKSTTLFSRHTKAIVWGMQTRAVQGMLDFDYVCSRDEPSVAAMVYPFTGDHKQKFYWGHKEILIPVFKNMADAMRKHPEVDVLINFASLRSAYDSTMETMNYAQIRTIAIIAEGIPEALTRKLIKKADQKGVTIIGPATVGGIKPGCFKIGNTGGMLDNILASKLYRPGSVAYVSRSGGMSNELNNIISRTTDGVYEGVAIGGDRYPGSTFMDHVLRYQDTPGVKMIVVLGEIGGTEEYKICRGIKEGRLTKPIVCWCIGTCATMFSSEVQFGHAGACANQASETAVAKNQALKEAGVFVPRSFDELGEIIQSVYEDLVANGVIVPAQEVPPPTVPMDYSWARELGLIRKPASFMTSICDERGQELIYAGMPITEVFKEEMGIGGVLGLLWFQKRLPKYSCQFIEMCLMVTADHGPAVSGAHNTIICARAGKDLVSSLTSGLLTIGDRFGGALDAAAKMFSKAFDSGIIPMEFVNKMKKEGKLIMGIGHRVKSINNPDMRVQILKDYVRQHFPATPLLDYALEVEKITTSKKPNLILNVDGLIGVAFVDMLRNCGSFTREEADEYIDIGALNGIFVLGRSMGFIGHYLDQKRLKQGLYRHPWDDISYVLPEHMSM
Method: Compounds of the present invention were evaluated in an ACLY Coupled Assay.
The assay protocol for the Coupled Assay (below) was followed:
b) Add 1 μL cpds to 96 assay plate, Test cpd conc: 100/30/10 μM top dose, 3 folds dilution, 10+0+control (control: buffer without ACL+DMSO) points, 1000 rpm for 1 min, incubation at 25° C. for 60 min

As to `CO[C@@H]1CCN(C(=O)c2cc(Cl)c(O)c(S(=O)(=O)Nc3cc(-c4ccccc4)ccc3F)c2)C1` [I-141, 3-chloro-N-[4-fluoro-[1,1-biphenyl]-3-yl]-2-hydroxy-5-[(3R)-3-methoxypyrrolidine-1-carbonyl]benzene-1-sulfonamide], the IC50 at ACL [1] lay in the range of 50 to 500 nM; at ACL [2] it was 500 to 30000 nM.

`O=C(O)c1occc1NS(=O)(=O)c1cc(Cl)cc(Cl)c1` [I-316, 3-((3,5-dichlorophenyl)sulfonamido)furan-2-carboxylic acid]: the concentration for half-maximal inhibition (IC50) at ACL [1] lay in the range of 500 to 20000 nM; on ACL [2] it was 500 to 30000 nM.

`O=C(O)COc1ccc(-c2ccccc2)cc1NS(=O)(=O)c1cc(C(F)(F)F)cc(Cl)c1O` [I-264, 2-([3-[3-chloro-2-hydroxy-5-(trifluoromethyl)benzenesulfonamido]-[1,1-biphenyl]-4-yl]oxy)acetic Acid]: the IC50 against ACL [1] lay within 500 to 20000 nM; against ACL [2] it was 500 to 30000 nM.

As to `O=C(O)c1cc(F)c(-c2ccccc2)cc1NS(=O)(=O)c1cc(Cl)cc(Cl)c1O` [I-289, 5-((3,5-dichloro-2-hydroxyphenyl)sulfonamido)-2-fluoro-[1,1′-biphenyl]-4-carboxylic Acid], the results for the IC50 against ACL [1] and against ACL [2] were 500 to 20000 nM and 500 to 30000 nM, respectively.

Consider `CC#Cc1cc(Cl)ccc1NS(=O)(=O)c1cc(Br)cc(Cl)c1O` [I-512], for which the IC50 on ACL [1] fell in the range of 500 to 20000 nM; at ACL [2], 500 to 30000 nM.

On to `COc1ccc(-c2ccccc2)cc1NS(=O)(=O)c1cc(C(=O)N2CC(N)C2)cc(Cl)c1O` [I-276, 5-(3-aminoazetidine-1-carbonyl)-3-chloro-2-hydroxy-N-[4-methoxy-[1,1-biphenyl]-3-yl]benzene-1-sulfonamide], for which the half-maximal inhibitory concentration (IC50) on ACL [1] (read-out: ACL-ADP-Glo (IC50), 3 nM ACL, 15 μM ATP, 3 μM CoA, 300 μM Citrate) was below 50 nM; against ACL [2] it was 50 to 500 nM.

Regarding `Nc1ccc(-c2ccccc2)cc1NS(=O)(=O)c1cc(Cl)cc(Br)c1O` [I-53, N-(2-amino-5-phenylphenyl)-3-bromo-5-chloro-2-hydroxybenzene-1-sulfonamide], the values for the IC50 against ACL [1] and at ACL [2] were 500 to 20000 nM and 500 to 30000 nM, respectively.

For the compound `COc1ccc(-c2ccccc2)cc1NS(=O)(=O)c1cc(C#N)cc(Cl)c1O` [I-58, 3-chloro-5-cyano-2-hydroxy-N-(2-methoxy-5-phenylphenyl)benzene-1-sulfonamide], the IC50 against ACL [1] and against ACL [2] was 50 to 500 nM throughout.

In the case of `O=C(O)c1ccc(-c2ccccc2)cc1NS(=O)(=O)N1CCC2(CCCCC2)CC1` [I-340], the IC50 on ACL [1] fell in the range of 500 to 20000 nM; against ACL [2], 500 to 30000 nM.

With `O=C(c1cc(Cl)c(O)c(S(=O)(=O)Nc2cc(C3CC3)c(F)cc2F)c1)N1CCC1` [I-137, 5-(azetidine-1-carbonyl)-3-chloro-N-(5-cyclopropyl-2,4-difluorophenyl)-2-hydroxybenzene-1-sulfonamide], the concentration for half-maximal inhibition (IC50) at ACL [1] and on ACL [2] was 50 to 500 nM throughout.

For `CO[C@@H]1CCN(C(=O)c2cc(Cl)c(O)c(S(=O)(=O)Nc3cc(-c4ccccc4)c(F)cc3F)c2)C1` [I-104, 3-chloro-N-(2,4-difluoro-5-phenylphenyl)-2-hydroxy-5-[[(3R)-3-methoxypyrrolidin-1-yl]carbonyl]benzene-1-sulfonamide], the figures for the IC50 on ACL [1] and at ACL [2] were 50 to 500 nM and 500 to 30000 nM, respectively.

Take `O=S(=O)(Nc1cc(-c2ccccc2)ccn1)c1cc(Cl)cc(Br)c1O` [I-32]: the figures for the IC50 at ACL [1] and at ACL [2] were 500 to 20000 nM and 500 to 30000 nM, respectively.

For the compound `COc1c(Cl)cc(Cl)cc1S(=O)(=O)Nc1cc(-c2cc3ccccc3s2)ccc1C(=O)O` [I-297, 4-(benzo[b]thiophen-2-yl)-2-((3,5-dichloro-2-methoxyphenyl)sulfonamido)benzoic Acid], the IC50 lay in the range of 500 to 20000 nM on ACL [1] and 500 to 30000 nM against ACL [2].

For the compound `COc1ccc(-c2ccccc2)cc1NS(=O)(=O)c1cc(-c2nccn2C)cc(Cl)c1O` [I-131, 3-chloro-2-hydroxy-N-[4-methoxy-[1,1-biphenyl]-3-yl]-5-(1-methyl-1H-imidazol-2-yl)benzene-1-sulfonamide], the IC50 against ACL [1] and on ACL [2] was 50 to 500 nM each time.
